This assay relates to SHHF rats. The experiment in a line: Chronic treatment: arterial pressure and heart rate in SHHF rats. Type of assay: in vivo, rat. The conditions noted are these: 20 mg/kg/d in drinking water, 12 weeks. As for the experimental part:
Male SHHF rats (spontaneously hypertensive, heart failure) aged 12 weeks were used for this study (Charles River breeding centre, L'Arbresle, France).
The animals were placed in a room with controlled temperature and light, had free access to tap water and were fed a standard diet (A04, SAFE, Augy, France). This study was conducted in agreement with institutional recommendations and the rules laid down by the European Community for the use of experimental animals (L358-86/609/EEC).
Compound 1 was administered in the drinking water for 12 weeks at a dose of 20 mg/kg/d (n=17). Water consumption was regularly measured to adjust the concentration of compound 1. Non-treated control SHHF rats had access to normal water (n=10).
Body weight, water and food intake were measured every day. […] Three days later, arterial pressure and heart rate were recorded and a glucose tolerance test was performed.
The rats were anesthetized with pentobarbital 50 mg/kg, i.p. (Céa santé animale, Libourne, France) and tracheotomized. […] Arterial pressure was recorded after stabilization with a pressure transducer (Gould P23XL) and recorder (Gould Electronics BS 272, Longjumeau, France). Mean arterial pressure (MAP) was calculated as diastolic pressure plus one third of differential arterial pressure. Heart rate was also recorded from the pressure signal using a Gould Biotach amplifier (model 13-4615-66).

With `Cc1c(Cl)cccc1NC1=NCC(C)C1.Cl` (centres unmarked) [Compound 1, (3-Chloro-2-methyl-phenyl)-(4-methyl-4,5-dihydro-3H-pyrrol-2-yl)-amine hydrochloride], the arterial pressure (control 176±6) turned out to be 153±7 mmHg. Moreover, where the note is “control 361±8”, the heart rate is 367±6 bpm.
